Measurements taken from paper PMC8976073 (Nature Communications, 2022).
Residue numbers refer to the chain shown, from its start.

Tests used:
[1] = biological target: T1, FPR2 (Homo sapiens, UniProt P25090, F110A); assay: Inositol-phosphate (IP) accumulation assay, FPR2 (wild type and mutants) with chimeric GαΔ6qi4myr in HEK293F cells; type: cell-based; conditions: FPR2 F110A
T1 construct: expressed in transfected cells; host or cells: HEK293F cells, pTT5 vector, co-transfected with GαΔ6qi4myr (1:2 w/w)
T1 sequence (P25090 1-351 F110A): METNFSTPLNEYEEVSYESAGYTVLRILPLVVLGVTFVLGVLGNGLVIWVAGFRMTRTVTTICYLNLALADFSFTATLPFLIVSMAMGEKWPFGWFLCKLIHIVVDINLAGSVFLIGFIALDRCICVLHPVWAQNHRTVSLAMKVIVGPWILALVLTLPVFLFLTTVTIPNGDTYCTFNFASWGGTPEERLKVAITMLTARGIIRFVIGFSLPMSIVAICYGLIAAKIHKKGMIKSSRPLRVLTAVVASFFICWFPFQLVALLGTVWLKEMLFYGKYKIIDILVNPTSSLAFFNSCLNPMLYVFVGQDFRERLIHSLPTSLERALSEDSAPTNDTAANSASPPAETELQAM
Method: (§1) Flag-tagged wild-type FPR1 and FPR2 and mutants were cloned into the pTT5 vector and expressed in HEK293F cells. Cells were cotransfected with the plasmids of receptor and a chimeric Gα protein GαΔ6qi4myr, which redirects the Gαi signaling pathway to the Gαq phospholipase-C pathway, at a ratio of 1:2 (w/w), and were harvested 48 h post transfection. The cell-surface expression was measured as described above.
(§2) The IP-One Gq assay kit (Cisbio Bioassays, 62IPAPEB) was used to measure the peptide agonist-induced IP production. […] Then, the cells were supplemented with 3 μl cryptate-labeled anti-IP1 monoclonal antibody (1:20 diluted in lysis and detection buffer) and 3 μl d2-labeled IP1, and incubated at room temperature for another 1 h. […] The accumulation of IP1, EC50, and pEC50 were calculated using nonlinear regression (curve fit) according to a standard dose–response curve in GraphPad Prism 8.0 (GraphPad software).

[2] = biological target: T2, FPR2 (Homo sapiens, UniProt P25090); assay: as above; type: cell-based; conditions: FPR2 WT; mean ± SEM; SEM
T2 construct: expressed in transfected cells; host or cells: HEK293F cells, pTT5 vector, co-transfected with GαΔ6qi4myr (1:2 w/w)
T2 sequence (P25090 1-351): T1 sequence (P25090 1-351 F110A) with A110F
Method: as §1, §2

Q: Which EC50 [1] does the source give for `CC[C@H](C)[C@H](NC(=O)[C@H](CCC(=O)O)NC(=O)[C@H](CO)NC(=O)[C@@H](NC(=O)[C@H](CC(C)C)NC(=O)[C@H](CC(C)C)NC(=O)[C@H](CC(C)C)NC(=O)[C@H](CC(C)C)NC(=O)[C@H](CS)NC(=O)[C@H](CO)NC(=O)[C@H](Cc1ccccc1)NC(=O)CNC(=O)[C@H](CCCNC(=N)N)NC(=O)[C@@H]1CCCN1C(=O)[C@H](C)NC(=O)[C@H](CCSC)NC=O)[C@@H](C)O)C(=O)N[C@@H](CC(=O)O)C(=O)N[C@@H](CC(C)C)C(=O)N1CCC[C@H]1C(=O)N[C@H](C(=O)N[C@@H](CCCCN)C(=O)N[C@@H](CCCNC(=N)N)C(=O)N[C@@H](CCCNC(=N)N)C(=O)N[C@@H](C)C(=O)O)C(C)C` [fHN, N-formyl humanin] here?
A: 110 nM

Q: And the EC50 [2]?
A: 126 nM
